Measured values as given in the supplement of paper PMC8967900.

What was measured:
Test in all cases: selective drug sensitivity score (sDSS, relative to normal bone marrow) (sDSS (score)); higher = more potent and effective on the cell line relative to normal bone marrow cells
Settings in all cases: 72 h
697 = system: 697
ALL-PO = system: ALL-PO
ALL-SIL = system: ALL-SIL
CCRF-CEM = system: CCRF-CEM
CCRF-HSB2 = system: CCRF-HSB2
COG-LL-317 = system: COG-LL-317
COG-LL-319h = system: COG-LL-319h
COG-LL-332h = system: COG-LL-332h
DND-41 = system: DND-41
HAL-01 = system: HAL-01
JURKAT = system: JURKAT
KASUMI-2 = system: KASUMI-2
KASUMI-9 = system: KASUMI-9
LC4-1 = system: LC4-1
MOLT-4 = system: MOLT-4
NALM-6 = system: NALM-6
P12-ICHIKAWA = system: P12-ICHIKAWA
PF-382 = system: PF-382
RPMI-8402 = system: RPMI-8402
SUP-B15 = system: SUP-B15
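Note: ALL cell lines in 384-well plates, five doses spanning 10,000-fold, each plate scaled between vehicle and 100 µmol/L benzalkonium chloride controls, sDSS an adapted area-under-curve metric.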

Structure (SMILES) | selective drug sensitivity score 697 | selective drug sensitivity score (ALL-PO) | selective drug sensitivity score (ALL-SIL) | selective drug sensitivity score (CCRF-CEM) | selective drug sensitivity score (CCRF-HSB2) | selective drug sensitivity score (COG-LL-317) | selective drug sensitivity score (COG-LL-319h) | selective drug sensitivity score (COG-LL-332h) | selective drug sensitivity score (DND-41) | selective drug sensitivity score (HAL-01) | selective drug sensitivity score (JURKAT) | selective drug sensitivity score (KASUMI-2) | selective drug sensitivity score (KASUMI-9) | selective drug sensitivity score (LC4-1) | selective drug sensitivity score (MOLT-4) | selective drug sensitivity score (NALM-6) | selective drug sensitivity score (P12-ICHIKAWA) | selective drug sensitivity score (PF-382) | selective drug sensitivity score (RPMI-8402) | selective drug sensitivity score (SUP-B15)
C[C@@H]1CN(Cc2ccc(F)cc2)[C@@H](C)CN1C(=O)c1cc2c(C(=O)C(=O)N(C)C)cn(C)c2cc1Cl [Talmapimod] (top concentration 10000 nM) | 1 | 3.2 | 2.1 | 0 | 0 | 0 | 0 | 0 | 0.5 | 0 | 0.9 | 0 | 0 | 0 | 0 | 0 | 0 | 0 | 0.8 | 2.8
C[C@H]1C[C@@H]2[C@H]([C@@H](O)C[C@@]3(C)[C@H]2CC[C@]3(O)C(=O)CO)[C@@]2(C)C=CC(=O)C=C12 [Methylprednisolone] (top concentration 10000 nM) | 22.3 | 34.1 | 10.9 | 6.4 | 13.9 | 5.4 | 14.2 | -0.7 | 31.6 | 1.5 | -2 | 11.6 | 4 | 5.9 | -2.3 | 22.4 | 19.8 | -1.6 | -2.1 | 32.9
CN(C)CCCOc1ccc(-c2ccc3ncc4c(c3c2)n(C2CCOCC2)c(=O)n4C)cn1 [AZD0156] (top concentration 1000 nM) | 1.04 | 2.24 | 1.84 | 1.74 | 0.94 | -0.06 | 3.84 | 0.64 | 4.14 | 0.64 | -0.06 | 2.84 | 1.04 | 1.04 | -0.06 | -0.06 | 0.14 | 0.64 | 0.14 | 1.14
Cc1sc2c(c1C)C(c1ccc(Cl)cc1)=N[C@@H](CC(=O)Nc1ccc(OCCOCCOCCOCCNc3cccc4c3C(=O)N(C3CCC(=O)NC3=O)C4=O)cc1)c1nnc(C)n1-2 (stereo not given in full) [ARV-825] (top concentration 300 nM) | 3.14 | 2.34 | -6.46 | -2.66 | 1.14 | -0.26 | 4.04 | -1.46 | 0.84 | -12.1 | -13.2 | -4.46 | 6.64 | 3.64 | -10.4 | 1.24 | -7.46 | 0.14 | 1.04 | 6.14
c1cc(CN2CCCNCCNCCCNCC2)ccc1CN1CCCNCCNCCCNCC1 [Plerixafor] (top concentration 10000 nM) | 0.7 | 0 | 0 | 0 | 0 | 0 | 0 | 0 | 0 | 0 | 0 | 0 | 0 | 0 | 0 | 0.3 | 0 | 0 | 0 | 0
CC(C)(C)NC(=O)[C@H]1CC[C@H]2[C@@H]3CC[C@H]4NC(=O)C=C[C@]4(C)[C@H]3CC[C@]12C [Finasteride] (top concentration 10000 nM) | -0.52 | 0.48 | 1.78 | -0.52 | -0.52 | -0.52 | -0.42 | -0.52 | 2.98 | 1.08 | -0.52 | 0.78 | -0.12 | 2.08 | -0.52 | -0.52 | -0.52 | -0.52 | -0.52 | 3.08
CC1=C(/C=C/C(C)=C/C=C/C(C)=C/C(=O)O)C(C)(C)CCC1 [Tretinoin] (top concentration 10000 nM) | -1.1 | -2.3 | -2.4 | -2.3 | -2.4 | -1.8 | -2.4 | -2.4 | -2.4 | 1.2 | -2.4 | -2.4 | 3.4 | -2.4 | -2.4 | -2.4 | -2.4 | -2.4 | -2.4 | -2.4
Cn1cc(-c2cnn3c(N)c(Br)c([C@@H]4CCCNC4)nc23)cn1 [MK-8776] (top concentration 2500 nM) | 1.54 | 4.44 | 2.04 | 1.04 | 0.64 | 6.14 | 1.04 | 0.34 | 3.84 | -0.46 | -1.46 | -1.46 | 1.54 | 0.54 | -1.46 | -1.36 | -0.36 | 0.14 | 1.44 | -0.06
CC[C@]1(O)C[C@H]2CN(CCc3c([nH]c4ccccc34)[C@@](C(=O)OC)(c3cc4c(cc3OC)N(C=O)[C@H]3[C@@](O)(C(=O)OC)[C@H](OC(C)=O)[C@]5(CC)C=CCN6CC[C@]43[C@@H]65)C2)C1 [Vincristine] (top concentration 1000 nM) | 17 | 8.32 | 13.1 | 4.42 | 1.62 | 8.92 | 16.3 | 4.22 | 2.02 | -6.38 | 4.52 | 8.92 | 15.9 | 16.7 | 4.02 | 10.7 | 4.52 | -0.18 | 4.72 | 18.5
